We go through 4 molecules from patent US20250296959A1, “B7-H3 TARGETING PEPTIDES AND CONSTRUCTS THEREOF” (Mariana Oncology Inc., priority 2024, published 2025).

Test [1] deals with Calu-6 cell line. Description: Cell associated (bound) fraction of [177Lu]Lu-labeled peptide in Calu-6 cells. To be noted: 1 hour, 37° C. The format is cell-based, Human. The gist of the method:
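Detached B7-H3-expressing human lung cancer cells at 5 million/mL were exposed for 1 hour at 37 °C to 0.8 μCi of the 177Lu-labelled peptide, which was formulated in 1% PBSA after labelling at 80 °C, pH ~5. Supernatant and two cold washes counted as unbound, and resuspended cells gamma-counted as the cell-associated fraction.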

For a further test, the target named is T1, 4lg-B7-H3 (Homo sapiens, UniProt Q5ZPR3, S143D).
T1 sequence (Q5ZPR3 29-456 S143D): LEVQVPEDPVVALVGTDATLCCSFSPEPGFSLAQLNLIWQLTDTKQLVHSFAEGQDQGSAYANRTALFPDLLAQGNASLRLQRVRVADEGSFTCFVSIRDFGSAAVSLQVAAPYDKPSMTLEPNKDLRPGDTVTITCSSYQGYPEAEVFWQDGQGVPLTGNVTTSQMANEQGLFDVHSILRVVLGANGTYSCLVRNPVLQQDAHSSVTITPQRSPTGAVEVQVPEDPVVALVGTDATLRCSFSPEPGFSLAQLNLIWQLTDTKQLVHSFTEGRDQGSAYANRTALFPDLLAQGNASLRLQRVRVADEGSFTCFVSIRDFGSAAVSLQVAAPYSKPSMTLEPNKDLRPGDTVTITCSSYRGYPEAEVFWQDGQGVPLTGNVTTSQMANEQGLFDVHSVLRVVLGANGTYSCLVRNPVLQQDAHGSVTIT
Briefly: X-ray crystal structure of compound bound to 4lg-B7-H3. Here is the method: The x-ray crystal structure of an exemplary compound of the disclosure bound to 4lg-B7-H3 was determined. Suitable constructs for B^7H3 expression had been previously established by PROTEROS. Expression of B^7H3 was performed according to previously established protocols. A purification protocol was established and homogeneous protein was produced in preparative amounts. The protein was purified comprising affinity and gel filtration chromatography steps. This procedure yielded homogenous protein with a purity greater 95% as judged from Coomassie stained SDS-PAGE. A 4lg-B7-H3 sequence from amino acid 29-456 was employed. The following sequence corresponds to amino acids 1-534 of 4lg-B7-H3:
The purified protein was used in crystallization trials employing both, a standard screen with approximately 1200 different conditions, as well as crystallization conditions identified using literature data. Conditions initially obtained have been optimized using standard strategies, systematically varying parameters critically influencing crystallization, such as temperature, protein concentration, drop ratio, and others. These conditions were also refined by systematically varying pH or precipitant concentrations.
A cryo-protocol was established using PROTEROS Standard Protocols. Crystals have been flash-frozen and measured at a temperature of 100 K. The X-ray diffraction data have been collected from complex crystals of 4lg-B7-H3 with the ligand of Cpd #200 at the SWISS LIGHT SOURCE (SLS, Villigen, Switzerland) using cryogenic conditions. The crystals belong to space group P 61 2 2. Data were processed using the programs autoPROC, XDS and autoPROC, AIMLESS. […]
Subsequent model building and refinement was performed according to standard protocols with COOT and the software package CCP4, respectively. For the calculation of the free R-factor, a measure to cross-validate the correctness of the final model, about 4.8% of measured reflections were excluded from the refinement procedure (Table 27). […]

For another test, the target named is T2, human 4lg B7-H3 (Homo sapiens, UniProt Q5ZPR3).
T2 sequence (Q5ZPR3 29-534): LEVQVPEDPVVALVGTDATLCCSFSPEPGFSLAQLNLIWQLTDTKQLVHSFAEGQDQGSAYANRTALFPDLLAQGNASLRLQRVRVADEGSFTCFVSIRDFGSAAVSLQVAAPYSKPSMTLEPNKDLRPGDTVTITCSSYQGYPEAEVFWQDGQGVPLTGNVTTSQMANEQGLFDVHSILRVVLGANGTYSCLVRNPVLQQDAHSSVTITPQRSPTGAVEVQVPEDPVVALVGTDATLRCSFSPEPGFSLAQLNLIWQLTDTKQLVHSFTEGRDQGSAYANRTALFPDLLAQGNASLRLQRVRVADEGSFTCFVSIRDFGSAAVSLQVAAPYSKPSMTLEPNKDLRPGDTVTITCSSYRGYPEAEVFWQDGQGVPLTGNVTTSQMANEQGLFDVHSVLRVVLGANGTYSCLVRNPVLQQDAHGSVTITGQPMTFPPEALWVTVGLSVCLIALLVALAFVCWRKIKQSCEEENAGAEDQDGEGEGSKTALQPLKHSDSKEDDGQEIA
Description: Affinity determination by surface plasmon resonance (SPR) to 4Ig B7-H3. To be noted: 4Ig B7-H3.

The test system of test [2] is Calu-6 cell line. Description: Net internalization of [177Lu]Lu-labeled peptide in Calu-6 cells. The format is cell-based, Human. To be noted: 1 hour, 37° C., glycine pH 2.5 acid wash. The gist of the method:
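Calu-6 cells, human non-engineered lung cancer expressing B7-H3, resuspended in 1% PBSA at 5 million cells/mL and incubated with the 177Lu-labeled conjugate (labeled at 80 °C, pH ~5, RP-HPLC checked). Gamma counting of the bound fraction, then of the pellet after two glycine pH 2.5 acid strips and NaOH lysis, gives internalized activity.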

The target of test [3] is T3, Biotinylated human 4Ig B7-H3 (human, UniProt Q5ZPR3 29-461, limits assumed, biotinylated (site not stated)).
T3 construct: Protein captured on the SA chip for SPR; also called 4lg-B7-H3; B7-H3 isoform 4Ig
T3 sequence: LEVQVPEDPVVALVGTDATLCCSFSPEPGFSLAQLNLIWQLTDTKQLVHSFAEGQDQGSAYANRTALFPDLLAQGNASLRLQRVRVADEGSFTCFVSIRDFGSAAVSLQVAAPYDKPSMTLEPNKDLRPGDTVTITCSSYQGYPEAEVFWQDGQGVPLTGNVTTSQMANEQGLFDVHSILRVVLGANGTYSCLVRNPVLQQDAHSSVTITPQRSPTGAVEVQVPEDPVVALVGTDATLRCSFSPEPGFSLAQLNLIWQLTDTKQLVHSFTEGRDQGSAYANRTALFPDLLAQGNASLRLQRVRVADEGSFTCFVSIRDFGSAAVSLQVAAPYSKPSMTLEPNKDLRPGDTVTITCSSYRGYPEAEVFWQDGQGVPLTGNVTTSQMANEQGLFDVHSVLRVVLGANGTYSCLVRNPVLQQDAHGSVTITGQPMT
Briefly: SPR 25C; B = 1.0<KD<=10 nM.

The target in test [4] is T3, Biotinylated human 4Ig B7-H3. Description: SPR 37C; B = 1.0<KD<=10 nM.
The target is the same in test [5]. Briefly: SPR 37C; D = 100<KD<=300 nM.
The target of test [6] is Biotinylated human 4Ig B7-H3 (human) (UniProt Q5ZPR3). Description: SPR 25C; A = KD<=1.0 nM.
The target in test [7] is B7-H3 on Calu-6 cells (human) (UniProt Q5ZPR3). Description: 177Lu-labelled peptide on Calu-6 cells, % cell associated fraction; C = >50%.
For test [8], the target named is Biotinylated human 4Ig B7-H3 (human) (UniProt Q5ZPR3). Briefly: SPR 37C; A = KD<=1.0 nM.

Read-outs that look alike come from different tables or passages of the source. Starred links: 1 amine or outer side, 2 acyl side, 3 side chain; linkers in the order of their positions; H or OH if unused. Positions of bridges follow the written chain, without caps; N, C: chain ends. Non-standard residues stand in square brackets, D forms with d. Residues, ends and D or L forms follow the SMILES beside them. Groups on a side chain read outwards from the residue. Primed or numbered codes have the meaning given here. *: point of attachment. DOTA = O=C(O)CN1CCN(CC(=O)O)CCN(CC(=O)*)CCN(CC(=O)O)CC1; Trp(5-F) = N[C@@H](Cc1c[nH]c2ccc(F)cc12)C(=O)O; PEG4′ = 4x 3-(2-aminoethoxy)propanoic acid; γGlu = O=C(O)[C@H](CCC(=O)[*:2])N[*:1]; Ala(4-THP) = N[C@@H](CC1CCOCC1)C(=O)O; Val(3-OH) = CC(C)(O)[C@H](N)C(=O)O; Tle = CC(C)(C)[C@H](N)C(=O)O; hLeu = CC(C)CC[C@H](N)C(=O)O; Nle = CCCC[C@H](N)C(=O)O Where only a bound is given, the exact number is not on record here.

Turning to `CC(=O)N[C@@H](CCC(C)C)C(=O)N[C@@H](Cc1ccc(O)cc1)C(=O)N[C@H]1CSSC[C@@H](C(=O)N[C@@H](Cc2c[nH]c3ccc(F)cc23)C(=O)N[C@@H](Cc2ccccc2)C(=O)N[C@H](C(=O)N[C@H](CCCCNC(=O)CN2CCN(CC(=O)O)CCN(CC(=O)O)CCN(CC(=O)O)CC2)C(N)=O)[C@@H](C)O)NC(=O)[C@H](Cc2ccc(O)cc2)NC(=O)[C@H](C(C)C)NC(=O)[C@H](CC(=O)O)NC(=O)[C@H](CC2CCOCC2)NC(=O)[C@H](CCCCN)NC(=O)CNC(=O)[C@H](C(C)C)NC1=O` [compound 200, Ac-hLeu-Y-C-V-G-K-ThpA-D-V-Y-C-5FW-F-Thr-dLys(DOTA)-CONH2] (Ac-[hLeu]YCVGK[Ala(4-THP)]DVYC[Trp(5-F)]FT[dK](DOTA)-NH2; disulfide 3-11), the “% cell associated fraction” value in the test on Calu-6 cell line [1] is on record as “C (%>50)”. Besides, the “Resolution [Å]” value at 4lg-B7-H3 (complex crystals of 4lg-B7-H3 with ligand, parenthesis = highest resolution bin) is given as 2.98 (3.28-2.98) Å. In addition, the “specific hydrogen bonds to 4lg-B7-H3” value on 4lg-B7-H3 (distance of less than 3.5 Å of donor and acceptor atoms) is “eleven”. In addition, the “ligand binding site in 4lg-B7-H3” value on 4lg-B7-H3 (extracellular domain residues 29-456) was “bound between the Ig-like C2-type 1 and Ig-like V-type 2 domains”. Moreover, the Kd on human 4lg B7-H3 (read-out: SPR KD—25° C., 25° C. flow cell temperature) was less than 1 nM; on human 4lg B7-H3 (read-out: SPR KD—37° C., 37° C. flow cell temperature) it was 1 to 10 nM. For the same molecule, the “% net internalization” value in the test with Calu-6 cell line [2] is “A (%≤25)”.
In the case of Ac-[Nle]YCVGKYDVYCWFT[dK](DOTA)-NH2 (disulfide 3-11) [Cpd 27], the KD in [3] and in [4] was 1 to 10 nM throughout.

B1: Cpd 36 (peptide)
peptide: Ac-[Nle]YCVGKYDVYCWF[γGlu][γGlu]-NH2
modifications: disulfide 3-11
SMILES: CCCC[C@H](NC(C)=O)C(=O)N[C@@H](Cc1ccc(O)cc1)C(=O)N[C@H]1CSSC[C@@H](C(=O)N[C@@H](Cc2c[nH]c3ccccc23)C(=O)N[C@@H](Cc2ccccc2)C(=O)N[C@@H](CCC(=O)N[C@@H](CCC(N)=O)C(=O)O)C(=O)O)NC(=O)[C@H](Cc2ccc(O)cc2)NC(=O)[C@H](C(C)C)NC(=O)[C@H](CC(=O)O)NC(=O)[C@H](Cc2ccc(O)cc2)NC(=O)[C@H](CCCCN)NC(=O)CNC(=O)[C@H](C(C)C)NC1=O
Regarding B1, the KD in test [5] lay within 100 to 300 nM.
Regarding Ac-[hLeu]YC[Tle]GK[Ala(4-THP)]DVYC[Trp(5-F)]F[Val(3-OH)][dK]([PEG4′-DOTA])-OH (disulfide 3-11 (inferred)) [Cpd 310], the KD in [6] and in test [8] was less than 1 nM throughout. In addition, the % cell associated fraction in test [7] is greater than 50%.

By Kd is commonly meant the free concentration of one partner at which half of the binding sites on the other are occupied at equilibrium, for simple one-to-one binding. As a reminder, the KD is the free concentration of one partner at which half of the binding sites on the other are occupied at equilibrium, for simple one-to-one binding. The low end stands for higher affinity, the high end for lower affinity.
